# Data from PubChem BioAssay (NCI).
#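 All cell lines were grown in 96-well plates and treated with compound for 48 hours. TGI is the concentration that stops growth completely.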
# Tests used:
# Test in all cases: NCI tumour cell line growth inhibition, 48 h
# UO-31 renal = test system: UO-31 renal
# ACHN renal = test system: ACHN renal
# MOLT-4 leukemia = test system: MOLT-4 leukemia
# RXF 393 renal = test system: RXF 393 renal
# SK-OV-3 ovarian = test system: SK-OV-3 ovarian
# NCI-H522 lung = test system: NCI-H522 lung
# SK-MEL-2 melanoma = test system: SK-MEL-2 melanoma
# HOP-92 NSCLC = test system: HOP-92 NSCLC
# SF-539 CNS = test system: SF-539 CNS
# NCI-H460 lung = test system: NCI-H460 lung
# HL-60(TB) leukemia = test system: HL-60(TB) leukemia
# SW-620 colon = test system: SW-620 colon
# IGROV1 ovarian = test system: IGROV1 ovarian
# HCC-2998 colon = test system: HCC-2998 colon
# UACC-257 melanoma = test system: UACC-257 melanoma
# 786-0 renal = test system: 786-0 renal
# SF-268 CNS = test system: SF-268 CNS
# OVCAR-4 ovarian = test system: OVCAR-4 ovarian
# A549 NSCLC = test system: A549 NSCLC
# TK-10 renal = test system: TK-10 renal
# NCI/ADR-RES ovarian = test system: NCI/ADR-RES ovarian
# SK-MEL-28 melanoma = test system: SK-MEL-28 melanoma
# NCI-H23 lung = test system: NCI-H23 lung
# CCRF-CEM leukemia = test system: CCRF-CEM leukemia
# KM12 colon = test system: KM12 colon
# HCT-15 colon = test system: HCT-15 colon
# OVCAR-8 ovarian = test system: OVCAR-8 ovarian
# MCF7 breast = test system: MCF7 breast
# MALME-3M melanoma = test system: MALME-3M melanoma
# SNB-75 CNS = test system: SNB-75 CNS
# MDA-N = test system: MDA-N
# SF-295 CNS = test system: SF-295 CNS
# U251 CNS = test system: U251 CNS
# BT-549 breast = test system: BT-549 breast
# K-562 leukemia = test system: K-562 leukemia
# CAKI-1 renal = test system: CAKI-1 renal
# HOP-62 NSCLC = test system: HOP-62 NSCLC
# EKVX NSCLC = test system: EKVX NSCLC
# NCI-H226 lung = test system: NCI-H226 lung
# PC-3 prostate = test system: PC-3 prostate
# COLO 205 colon = test system: COLO 205 colon
# HT29 colon = test system: HT29 colon
# SN12C renal = test system: SN12C renal
# UACC-62 melanoma = test system: UACC-62 melanoma
# SR leukemia = test system: SR leukemia
# OVCAR-5 ovarian = test system: OVCAR-5 ovarian
# DU-145 prostate = test system: DU-145 prostate
# OVCAR-3 ovarian = test system: OVCAR-3 ovarian
# HCT-116 colon = test system: HCT-116 colon
# SNB-19 CNS = test system: SNB-19 CNS
# RPMI-8226 leukemia = test system: RPMI-8226 leukemia
# A498 renal = test system: A498 renal
# M14 melanoma = test system: M14 melanoma
# T-47D breast = test system: T-47D breast
# SK-MEL-5 melanoma = test system: SK-MEL-5 melanoma
# MDA-MB-231 breast = test system: MDA-MB-231 breast
smiles,measurement,setting,value
Cc1cccc2nc3n(c12)C(=O)c1ccccc1-3,TGI,UO-31 renal,> 100 µM
same,TGI,ACHN renal,> 100 µM
same,TGI,MOLT-4 leukemia,> 100 µM
same,TGI,RXF 393 renal,> 100 µM
same,TGI,SK-OV-3 ovarian,> 100 µM
same,TGI,NCI-H522 lung,> 100 µM
same,TGI,SK-MEL-2 melanoma,> 100 µM
same,TGI,HOP-92 NSCLC,> 100 µM
same,TGI,SF-539 CNS,> 100 µM
same,TGI,NCI-H460 lung,> 100 µM
same,TGI,HL-60(TB) leukemia,> 100 µM
same,TGI,SW-620 colon,> 100 µM
same,TGI,IGROV1 ovarian,> 100 µM
same,TGI,HCC-2998 colon,> 100 µM
same,TGI,UACC-257 melanoma,> 100 µM
same,TGI,786-0 renal,> 100 µM
same,TGI,SF-268 CNS,> 100 µM
same,TGI,OVCAR-4 ovarian,> 100 µM
same,TGI,A549 NSCLC,> 100 µM
same,TGI,TK-10 renal,> 100 µM
same,TGI,NCI/ADR-RES ovarian,> 100 µM
same,TGI,SK-MEL-28 melanoma,> 100 µM
same,TGI,NCI-H23 lung,> 100 µM
same,TGI,CCRF-CEM leukemia,> 100 µM
same,TGI,KM12 colon,> 100 µM
same,TGI,HCT-15 colon,> 100 µM
same,TGI,OVCAR-8 ovarian,> 100 µM
same,TGI,MCF7 breast,> 100 µM
same,TGI,MALME-3M melanoma,> 100 µM
same,TGI,SNB-75 CNS,> 100 µM
same,TGI,MDA-N,> 100 µM
same,TGI,SF-295 CNS,> 100 µM
same,TGI,U251 CNS,> 100 µM
same,TGI,BT-549 breast,> 100 µM
same,TGI,K-562 leukemia,> 100 µM
same,TGI,CAKI-1 renal,> 100 µM
same,TGI,HOP-62 NSCLC,> 100 µM
same,TGI,EKVX NSCLC,> 100 µM
same,TGI,NCI-H226 lung,> 100 µM
same,TGI,PC-3 prostate,> 100 µM
same,TGI,COLO 205 colon,> 100 µM
same,TGI,HT29 colon,> 100 µM
same,TGI,SN12C renal,> 100 µM
same,TGI,UACC-62 melanoma,> 100 µM
same,TGI,SR leukemia,> 100 µM
same,TGI,OVCAR-5 ovarian,> 100 µM
same,TGI,DU-145 prostate,> 100 µM
same,TGI,OVCAR-3 ovarian,> 100 µM
same,TGI,HCT-116 colon,> 100 µM
same,TGI,SNB-19 CNS,> 100 µM
same,TGI,RPMI-8226 leukemia,> 100 µM
CC(=O)c1ccc(N2CCN(c3c(O)c4c(c(O)c3Cl)C(=O)C=CC4=O)CC2)cc1,TGI,UO-31 renal,22.9 µM
same,TGI,MOLT-4 leukemia,4.57 µM
same,TGI,RXF 393 renal,9.44 µM
same,TGI,HOP-92 NSCLC,5.13 µM
same,TGI,SF-539 CNS,30.2 µM
same,TGI,NCI-H460 lung,41 µM
same,TGI,HL-60(TB) leukemia,0.871 µM
same,TGI,A498 renal,33.7 µM
same,TGI,SW-620 colon,12.7 µM
same,TGI,IGROV1 ovarian,15.5 µM
same,TGI,HCC-2998 colon,37.4 µM
same,TGI,UACC-257 melanoma,24.1 µM
same,TGI,786-0 renal,27.2 µM
same,TGI,SF-268 CNS,8.12 µM
same,TGI,OVCAR-4 ovarian,10.8 µM
same,TGI,A549 NSCLC,34.8 µM
same,TGI,NCI/ADR-RES ovarian,88.5 µM
same,TGI,SK-MEL-28 melanoma,16.8 µM
same,TGI,CCRF-CEM leukemia,2.07 µM
same,TGI,M14 melanoma,6.76 µM
same,TGI,HCT-15 colon,> 100 µM
same,TGI,OVCAR-8 ovarian,23 µM
same,TGI,MCF7 breast,2.8 µM
same,TGI,MALME-3M melanoma,23.5 µM
same,TGI,SNB-75 CNS,26.6 µM
same,TGI,MDA-N,10.8 µM
same,TGI,SF-295 CNS,33.9 µM
same,TGI,U251 CNS,11.9 µM
same,TGI,K-562 leukemia,7.1 µM
same,TGI,T-47D breast,10.4 µM
same,TGI,CAKI-1 renal,11.8 µM
same,TGI,HOP-62 NSCLC,21 µM
same,TGI,EKVX NSCLC,46.7 µM
same,TGI,SK-MEL-5 melanoma,20.3 µM
same,TGI,PC-3 prostate,19.1 µM
same,TGI,COLO 205 colon,8.91 µM
same,TGI,UACC-62 melanoma,7.37 µM
same,TGI,SR leukemia,8.33 µM
same,TGI,OVCAR-5 ovarian,33 µM
same,TGI,DU-145 prostate,31.2 µM
same,TGI,OVCAR-3 ovarian,18.2 µM
same,TGI,MDA-MB-231 breast,5.5 µM
same,TGI,HCT-116 colon,11.9 µM
same,TGI,SNB-19 CNS,35.7 µM
same,TGI,RPMI-8226 leukemia,9.43 µM
